The record followed here is patent publication US8513285B2, “3 or 4-substituted piperidine compounds” (SK Biopharmaceuticals Co., Ltd., priority 2008, dated 2013).

The test system of assay [1] is mice. Nature of the assay: Forced swimming test in mice (FST). The format is in vivo. To be noted: Mus musculus, 0.5 h, 30ip, 30 min after administration, vs control group, read-out: Reduction % at 30ip (duration of immobility). As to the method:
Forced Swimming Test in Mice (FST)
The Forced swimming test is an animal model based on the rodent's behavioral repertoire for screening drugs with potential antidepressant activity. As in several other models used for this goal, an uncontrollable stress stimulus produces behavioral changes that are sensitive to antidepressant treatment.
The mice were intraperitoneally treated with the test compound with an injection volume of […]. The group treated with 30% PEG400 served as a control group. Thirty minutes following administration, mice were individually forced to swim in a transparent glass vessel (14 cm high, 11.5 cm in diameter) filled with 10 cm of water at 25° C. The total duration of immobility (second) was measured during the last 4 minutes of a single 6-min test session. Mice were considered immobile when they made no further attempts to escape other than the movements necessary to keep their heads above the water. The potent ability of the compounds was determined as percent value of reduction in the duration of immobility comparing to the control group.

The target in assay [2] is T1, human recombinant dopamine transporter (Homo sapiens, UniProt Q01959).
T1 construct: expressed in transfected cells; host or cells: CHO-K1
As to the kind of experiment: Dopamine transporter reuptake inhibition assay. The format is cell-based. The following applies: 100 nM; CHO-K1 cells with human dopamine transporter; [3H]Dopamine uptake; read-out: Inhibition % at 100 nM DA reuptake. On the procedure: Dopamine Transporter Reuptake Inhibition Assay
The assay followed the method modified from Pristupa Z. B. et al., Mol. Pharmacol., 1994, p 125˜135.
CHO-K1 cells with human recombinant dopamine transporter were plated. Test compounds were pre-incubated with cells (4×10^5/ml) in modified Tris-HEPES buffer pH 7.1 for 20 minutes at 25° C. and then they were incubated for additional 10 minutes after 50 nM of [^3H]Dopamine was added. A lysate is obtained from solubilized cells and counted to determine [^3H]Dopamine uptake. Reduction of [^3H]Dopamine uptake by 50 percent or more (≧50%) relative to 10 μM nomifensine indicates significant inhibitory activity. Compounds were tested at 10, 1, 0.1, 0.01 and 0.001 μM for IC50s.

Assay [3] addresses T2, human serotonin transporter (Homo sapiens, UniProt P31645).
T2 construct: expressed in transfected cells; host or cells: HEK-293
Nature of the assay: Serotonin transporter reuptake inhibition assay. The format is cell-based. The following applies: HEK293; 100 nM; HEK-293 cells with human serotonin transporter; [3H]Serotonin uptake; read-out: Inhibition % at 100 nM 5-HT reuptake. On the procedure: Serotonin Transporter Reuptake Inhibition Assay
The method to test the ability of compounds to inhibit transporters from reuptake of serotonin followed Gu H. et al., J Biol. Chem., 1994, 269, p […].
The recombinant HEK-293 cells with human serotonin transporter were plated. Test compounds were pre-incubated with cells (2×10^5/ml) in modified Tris-HEPES buffer pH 7.1 for 20 minutes at 25° C. and then they were incubated for additional 10 minutes after 65 nM of [^3H]Serotonin was added. Bound cells were filtered and counted to determine [^3H]Serotonin uptake. Reduction of [^3H]Serotonin uptake by 50 percent or more (≧50%) relative to 10 μM fluoxetine indicates significant inhibitory activity. Compounds were screened at 10, 1, 0.1, 0.01 and 0.001 μM for IC50s.

Assay [4] has as its target T3, human recombinant norepinephrine transporter (Homo sapiens, UniProt P23975).
T3 construct: expressed in transfected cells; host or cells: MDCK
As to the kind of experiment: Norepinephrine transporter reuptake inhibition assay. The format is cell-based. To be noted: 100 nM; MDCK cells with human norepinephrine transporter; [3H]Norepinephrine uptake; read-out: Inhibition % at 100 nM NE reuptake. On the procedure:
Norepinephrine Transporter Reuptake Inhibition Assay
Norepinephrine transporter reuptake inhibition assay used the method described by Galli A. et al., J Exp Biol., 1995, 198, p 2197˜2212.
MDCK cells with stably expressed human recombinant norepinephrine transporter were plated one day. Test compounds were pre-incubated with cells (2×10^5/ml) in modified Tris-HEPES buffer pH 7.1 for 20 minutes at 25° C. and then they were incubated for additional 10 minutes after 25 nM of [^3H]Norepinephrine was added. A lysate was obtained from solubilized cells and the filtered lysate was counted to determine [^3H]Norepinephrine uptake. Reduction of [^3H]Norepinephrine uptake by 50 percent or more (≧50%) relative to 10 μM desipramine indicates significant inhibitory activity. Compounds were screened at 10, 1, 0.1, 0.01 and 0.001 μM to determine their IC50s.

The subject of assay [5] is mice. As to the kind of experiment: Marble burying test. The format is in vivo. To be noted: 30 min after treatment, vs control group. The text has this: The Marble burying test is a screening tool for putative anxiolytics. In this test, control mice naturally bury glass marbles in the cage bedding and the administration of anxiolytic compounds, including Diazepam, reduces the number of buried marbles. Positive compounds in the marble burying test including selective serotonin reuptake inhibitor may be especially beneficial to obsessive-compulsive disorder.
A group of mice was intraperitoneally treated with test compound dissolved in 30% PEG400 with an injection volume of 10 ml/kg. The group treated with only 30% PEG400 served as a control group. Thirty minutes after the treatment, the animals were individually placed in a polycarbonate cage which was same as used for animal housing with an open top located within a quiet room. Each cage consisted of ⅛ inch corn bedding 5 cm deep. Twenty four clean glass marbles (15 mm diameter) were evenly spaced in four rows of six on top of the bedding. Each mouse was left in the cage for 30 minutes and the number of marbles buried (buried more than ½ or ⅔) was counted. The potent ability of the compounds was determined as percent value of reduction in the number of marbles buried comparing to the control group.

The test system of assay [6] is mice. Nature of the assay: Acetic acid induced writhing test (AA writhing test). The format is in vivo. The following applies: 0.8% acetic acid i.p. 30 min later, vs control group. The text has this:
Specially the results of Marble burying test (MB) in mice as noted in Table 3 show the compounds of the invention are related to the treatment of anxiety. Acetic Acid Induced Writhing Test (AA Writhing Test)
The Acetic acid-induced writhing test is a well-established nociceptive test using a chemical stimulus. Although several animal models of nociceptive tests have been developed to examine and compare the anti-nociceptive effects of different drugs, the anti-nociceptive effects of antidepressants appear to be test-dependent. Indeed, the acetic acid-induced writhing test is more sensitive to antidepressants than other tests using thermal, mechanical or electrical stimuli.
The animals were subcutaneously treated with the test compound with an injection volume of 10 ml/kg. The group treated with 30% PEG400 or saline served as a control group. Thirty minutes later, the mice were intraperitoneally treated with 0.8% (v/v) acetic acid. Each mouse was then placed in a cage for individual observation. The writhing numbers for 10 minutes were counted. The writhe is operationally defined as a contraction of the abdomen followed by stretching of the hind limbs. The potent ability of the compounds was determined as percent value of reduction in the number of writhing comparing to the control group.
A general note: Writhing tests count abdominal constrictions after an irritant is injected.

T2 sequence (P31645 whole entry): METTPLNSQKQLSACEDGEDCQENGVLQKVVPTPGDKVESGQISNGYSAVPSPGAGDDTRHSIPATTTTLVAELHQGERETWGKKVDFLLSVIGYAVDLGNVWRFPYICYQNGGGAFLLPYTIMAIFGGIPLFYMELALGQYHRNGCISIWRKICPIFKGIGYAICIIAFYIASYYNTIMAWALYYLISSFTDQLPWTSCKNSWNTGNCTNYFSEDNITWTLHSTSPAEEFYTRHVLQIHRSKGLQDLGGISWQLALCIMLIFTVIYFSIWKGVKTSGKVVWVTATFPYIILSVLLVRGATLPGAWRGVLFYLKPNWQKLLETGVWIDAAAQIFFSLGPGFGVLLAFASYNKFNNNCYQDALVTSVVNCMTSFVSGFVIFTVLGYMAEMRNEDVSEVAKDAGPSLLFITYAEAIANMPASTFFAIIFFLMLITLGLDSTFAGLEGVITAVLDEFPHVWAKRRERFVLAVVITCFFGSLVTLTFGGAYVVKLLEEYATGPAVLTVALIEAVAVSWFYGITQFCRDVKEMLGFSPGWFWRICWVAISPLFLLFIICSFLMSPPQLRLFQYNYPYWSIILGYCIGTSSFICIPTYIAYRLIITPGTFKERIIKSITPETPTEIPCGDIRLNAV
T3 sequence (P23975 whole entry): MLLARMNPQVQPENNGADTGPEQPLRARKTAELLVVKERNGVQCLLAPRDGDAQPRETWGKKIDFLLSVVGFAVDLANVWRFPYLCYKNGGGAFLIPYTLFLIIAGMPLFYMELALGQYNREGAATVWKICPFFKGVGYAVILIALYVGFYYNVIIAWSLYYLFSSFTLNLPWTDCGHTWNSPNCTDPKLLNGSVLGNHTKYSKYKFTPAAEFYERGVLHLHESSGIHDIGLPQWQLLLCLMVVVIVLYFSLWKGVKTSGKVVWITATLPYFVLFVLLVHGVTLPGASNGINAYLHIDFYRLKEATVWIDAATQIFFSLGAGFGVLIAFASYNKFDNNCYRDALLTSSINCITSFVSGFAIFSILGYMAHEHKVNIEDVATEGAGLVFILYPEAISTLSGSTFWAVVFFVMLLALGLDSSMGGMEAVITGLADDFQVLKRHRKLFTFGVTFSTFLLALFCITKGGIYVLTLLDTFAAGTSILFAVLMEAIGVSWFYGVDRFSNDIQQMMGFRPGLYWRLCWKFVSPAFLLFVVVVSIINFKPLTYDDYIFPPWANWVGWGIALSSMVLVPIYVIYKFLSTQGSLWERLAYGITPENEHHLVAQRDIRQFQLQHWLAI
T1 sequence (Q01959 whole entry): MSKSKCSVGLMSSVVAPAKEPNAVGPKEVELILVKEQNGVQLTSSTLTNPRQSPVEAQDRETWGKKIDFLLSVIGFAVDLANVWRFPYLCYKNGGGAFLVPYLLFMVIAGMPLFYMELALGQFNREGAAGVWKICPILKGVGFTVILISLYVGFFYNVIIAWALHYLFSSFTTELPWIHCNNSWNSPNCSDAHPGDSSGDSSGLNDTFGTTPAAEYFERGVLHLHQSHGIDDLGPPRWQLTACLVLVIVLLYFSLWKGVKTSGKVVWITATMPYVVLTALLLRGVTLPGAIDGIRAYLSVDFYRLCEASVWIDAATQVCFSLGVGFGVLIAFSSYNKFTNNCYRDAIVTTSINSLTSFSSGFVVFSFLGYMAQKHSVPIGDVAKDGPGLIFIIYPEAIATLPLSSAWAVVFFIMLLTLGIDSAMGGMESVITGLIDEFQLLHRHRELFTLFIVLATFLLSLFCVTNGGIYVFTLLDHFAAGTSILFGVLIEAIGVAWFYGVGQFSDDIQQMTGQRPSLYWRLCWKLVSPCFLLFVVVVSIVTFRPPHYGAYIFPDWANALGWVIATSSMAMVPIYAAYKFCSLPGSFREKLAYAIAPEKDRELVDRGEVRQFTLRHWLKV

`c1ccc2cc([C@H]([C@H]3CCCNC3)n3ncnn3)ccc2c1` [Example 2, (3S)-3-[(S)-naphthalen-2-yl(2H-tetrazol-2-yl)methyl]piperidine]: the inhibition in vivo at 30 mg/kg in assay [1] is 37.5%. Besides, the inhibition at 0.1 µM in assay [2] was 85%; in assay [3] it was 98%; in assay [4], 85%. Moreover, in assay [5] (20ip), the “Reduction % (number of marbles buried) at 20ip” value is 67.5% (at 20ip). Besides, the “Reduction % (number of writhing) at 10sc” value in assay [6] (10sc) is 60.6% (at 10sc).

As to `Cc1nnn([C@@H](c2ccc3ccccc3c2)[C@@H]2CCCNC2)n1` [Example 12, (3R)-3-[(R)-(5-methyl-2H-tetrazol-2-yl)(naphthalen-2-yl)methyl]piperidine], in assay [1], the inhibition in vivo at 30 mg/kg worked out at 9.7%. Further, the inhibition at 0.1 µM in assay [2] worked out at 92%; in assay [3] it was 83%; in assay [4], 90%. Further, the “Reduction % at 30ip (number of marbles buried)” value (“Reduction % at 30ip” for short) in assay [5] is 91.8%. Moreover, in assay [6], the “Reduction % at 30sc (number of writhing)” value is 50.5%.

As for `Clc1ccc([C@@H]([C@@H]2CCCNC2)n2ncnn2)cc1Cl` [Example 15, (3R)-3-[(R)-(3,4-dichlorophenyl)(2H-tetrazol-2-yl)methyl]piperidine], the inhibition in vivo at 30 mg/kg in assay [1] came out at 96.5%. Moreover, the figures for the inhibition at 0.1 µM in assay [2], in assay [3] and in assay [4] were 99%, 75% and 98%, respectively. Besides, the “Reduction % at 30ip” value in assay [5] was 75.3%. Moreover, the “Reduction % at 30sc (number of writhing)” value in assay [6] was 55.3%.

Regarding `Fc1ccc2cc([C@H]([C@H]3CCCNC3)n3ncnn3)ccc2c1` [Example 71], the inhibition in vivo at 30 mg/kg in assay [1] amounted to 54%. Also, the inhibition at 0.1 µM in assay [2] amounted to 54%; in assay [3] it was 92%; in assay [4] it was 46%. Further, in assay [5], the “Reduction % at 30ip” value amounted to 86.0%. In addition, the “Reduction % at 30sc (number of writhing)” value in assay [6] was 48.7%.

With `Fc1ccc2cc([C@@H]([C@@H]3CCCNC3)n3ncnn3)ccc2c1` [Example 83, (3R)-3-[(R)-(6-fluoronaphthalen-2-yl)(2H-tetrazol-2-yl)methyl]piperidine], in assay [1], the inhibition in vivo at 30 mg/kg stood at 51.8%. Moreover, the inhibition at 0.1 µM amounted to 66% in assay [2], 96% in assay [3] and 78% in assay [4]. In addition, the “Reduction % at 30ip” value in assay [5] amounted to 83.7%. Further, the “Reduction % at 30sc (number of writhing)” value in assay [6] is 84.1%.

Broadly, the inhibition is the relative decrease from the control value, in per cent.
